Assay results from patent publication US20230045390A1, “PLASMODIUM VIVAX MALE GAMETE FUSION PROTEIN PVHAP2 AND THE PUTATIVE PROLIFERATING-CELL NUCLEOLAR ANTIGEN P120 AS RELAPSE BIOMARKERS” (Seattle Children's Hospital dba Seattle Children's Research …, priority 2021, published 2023).
Entries after “also recorded” stand apart in the source; their conditions may differ.

Columns and labels:
P. vivax = test: 18S qRT-PCR analysis of liver parasite load in infected FRG huHep mice; format: in vivo, Plasmodium vivax; conditions: for parasite load, 18S rRNA in liver tissue by RT-qPCR: compared to DMSO
Procedure: (§1) All animal procedures were conducted in accordance with and approved by the Center for Infectious Disease Research Institutional Animal Care and Use Committee (IACUC). The Center for Infectious Disease Research IACUC adheres to the NIH Office of Laboratory Animal Welfare standards (OLAW welfare assurance #A3640-01). Female FRG KO mice engrafted with human hepatocytes (FRG KO huHep) were purchased from Yecuris Corporation (Oregon, USA). P. vivax infections of FRG huHEP were performed as previously described. Briefly, mice were divided in five experimental groups. Group 1 (3 mice) was not infected. Group 2 (6 mice) was inoculated with P. vivax sporozoites by the bite of 20 mosquitos and euthanized after 8 days post-infection (dpi). Group 3 (6 mice) was infected by intravenous injection of P. vivax sporozoites (0.8 million) and euthanized after 8 dpi. Group 4 (6 mice) was infected by intravenous injection of P. vivax sporozoites (1 million sporozoites) and euthanized after 21 dpi. Group 5 (3 mice) was infected by intravenous injection (1 million sporozoites) and treated with Tafenoquine (10 mg/kg) at 14 dpi and euthanized at 21 dpi. MMV048 (Novartis) mice treatment (30 mg/kg) was performed as follows: three mice from Groups 2 and 3 received intravenous injections of the drug at 4 dpi; three mice from Group 4 received intravenous injections of the drug at 17 dpi. Three DMSO-treated animals were used as controls in groups 2, 3 and 4. After euthanasia, livers were extracted for characterization by IFA and RT-qPCR and whole blood was extracted by cardiac venipuncture for plasma collection as previously described (Schafer C, et al. A recombinant antibody against Plasmodium vivax UIS4 for distinguishing replicating from dormant liver stages. Malar J 17, 370 (2018)).
Liver parasite load from infected FRG huHEP mice was quantified as previously described (Flannery E L, et al. Assessing drug efficacy against Plasmodium falciparum liver stages in vivo. JCI Insight 3, (2018)).

P. vivax liver stages = test: P. vivax infection of FRG huHep mice, quantification of liver stages by IFA; format: in vivo, Plasmodium vivax
Procedure: as §1, with “Malar J” left out, “(2018)). IFA analysis of PHH and liver sections of FRG huHep mice was performed as described (Schafer C, et al. A Humanized Mouse Model for Plasmodium vivax to Test Interventions that Block Liver Stage to Blood Stage Transition and Blood Stage Infection. iScience 23, 101381 (2020); Schafer C, et al. A recombinant antibody against Plasmodium vivax UIS4 for distinguishing replicating from dormant liver stages. […] 17, 370 (2018)). Briefly, culture cells and liver tissue were fixed in 4% paraformaldehyde in TBS for 10 min (PHH) and 16 hours (liver sections). PHH were blocked and permeabilized in TBS with 2% bovine serum albumin and 0.2% Triton-X-100 (PBS/BSA/Triton). FRG huHep fixed livers were sectioned in 50 μm thick sections in a vibratome. Tissue sections were then permeabilized in 0.25% Triton X-100 and 3% H2O2 for 30 min followed by a blocking step in 5% skim milk in TBS for 1 hour at RT. […]” for “(2018)).”

Plasmodium spp. = conditions: preclinical studies; cited from earlier work
[1] = system: P. cynomolgi liver hypnozoites; conditions: radical cure mode, both in vitro and in vivo; cited from earlier work
[2] = system: P. vivax liver stages in PHH; test: P. vivax infection of primary human hepatocytes (PHH), quantification of extraerythrocytic forms by IFA; format: cell-based, Plasmodium vivax; conditions: 0.1 μM after day 3 post-infection, fixed day 6
Procedure: Primary human hepatocytes (BioIVT) were plated and infected in chamber slides as previously described (Schafer C, et al. A Humanized Mouse Model for Plasmodium vivax to Test Interventions that Block Liver Stage to Blood Stage Transition and Blood Stage Infection. […] 23, 101381 (2020)). Briefly, 8-well PermanoxTM slides (LabTek) were coated with collagen (Advanced Biomatrix) and seeded with 1.25×10^5 viable cells using InVitroGROTM CP medium (BioIVT) supplemented with 2% FBS without antibiotics (plating media). Four hours later, plating media was replaced with InVitroGROTM CP containing antibiotics (1× Torpedo Antibiotic Mix with 10 μM gentamycin) without serum (maintenance media). Two days after plating, cells were infected with freshly dissected P. vivax salivary gland sporozoites (MOI=1.0) for four hours in maintenance media supplemented with 20% FBS. Cells were washed once, and maintenance media replaced daily thereafter and stored at -80° C. for EV analysis. After day 3 post-infection, cultures were treated with 0.1 μM MMV048 or 0.1% DMSO as vehicle (FIG. 5). On day 6-post infection, cells were fixed and analyzed by IFA. Total extraerythrocytic forms (EEF) and schizont/hypnozoite numbers and ratio were quantified. IFA analysis of PHH and liver sections of FRG huHep mice was performed as described (Schafer C, et al. A Humanized Mouse Model for Plasmodium vivax to Test Interventions that Block Liver Stage to Blood Stage Transition and Blood Stage Infection. iScience 23, 101381 (2020); Schafer C, et al. A recombinant antibody against Plasmodium vivax UIS4 for distinguishing replicating from dormant liver stages. […] 17, 370 (2018)). Briefly, culture cells and liver tissue were fixed in 4% paraformaldehyde in TBS for 10 min (PHH) and 16 hours (liver sections). PHH were blocked and permeabilized in TBS with 2% bovine serum albumin and 0.2% Triton-X-100 (PBS/BSA/Triton). FRG huHep fixed livers were sectioned in 50 μm thick sections in a vibratome. […]

[3] = group 4: intravenous infection, treated at 17 dpi, livers collected 21 dpi
[4] = group 5: 10 mg/kg at 14 dpi, euthanized 21 dpi

Row | Structure (SMILES) | parasite load, 18S rRNA in liver tissue by RT-qPCR (P. vivax; day 21, group 4) | parasite load, 18S rRNA in liver tissue by RT-qPCR (P. vivax; mosquito bite and intravenous infection, treated at 4 dpi, analyzed 8 dpi) | number of schizonts in liver by IFA (P. vivax liver stages; 30 mg/kg intravenous, groups 2, 3 and 4, compared to control mice) | hypnozoites in liver by IFA (P. vivax liver stages; [3]) | schizonts in liver by IFA (P. vivax liver stages; [3]) | activity against asexual, transmission and liver stages (Plasmodium spp.) | activity against liver hypnozoites [1] | hypnozoites by IFA [2] | schizonts by IFA ([2]; compared to DMSO) | total extraerythrocytic forms (EEF) by IFA ([2]; compared to DMSO-treated cells) | parasite 18S rRNA in liver by RT-qPCR (P. vivax; [4]) | liver forms by IFA (P. vivax liver stages; [4])
1 | CS(=O)(=O)c1ccc(-c2cnc(N)c(-c3ccc(C(F)(F)F)nc3)c2)cc1 [MMV048] | no differences | significantly reduced parasite load | significantly lower number of schizonts; also recorded: removed schizonts | only one hypnozoite was detected | no schizonts | potent activity | ineffective | resistance of hypnozoites to the drug | no schizonts were observed; also recorded: removed schizonts | significant reduction | – | –
2 | COc1cc(C)c2c(Oc3cccc(C(F)(F)F)c3)c(OC)cc(NC(C)CCCN)c2n1 (stereo not drawn) [Tafenoquine] | – | – | – | – | – | – | – | – | – | – | presence of parasite 18S rRNA | no liver forms were quantified
